Assay: xn = mol fraction of the nth substance listed
Conditions: Liquid, Vibrating tube method

CCCCCCCO [heptan-1-ol] + CCCCOCCCC
mass density [kg/m3]
Conditions | x2 = 0 | x2 = 0.1488 | x2 = 0.3201 | x2 = 0.4944 | x2 = 0.7014 | x2 = 0.8534
333.15 K, 140000 kPa | – | 857.7 | 850.3 | 843.3 | 834.8 | 829
353.15 K, 100 kPa | 778.1 | 768 | 756.6 | 745.6 | 732.4 | 723.4
353.15 K, 1000 kPa | 778.8 | 768.8 | 757.4 | 746.6 | 733.4 | 724.5
353.15 K, 5000 kPa | 782.3 | 772.5 | 761.4 | 750.8 | 738 | 729.4
353.15 K, 10000 kPa | 786.3 | 776.8 | 766 | 755.8 | 743.3 | 735
353.15 K, 15000 kPa | 790.2 | 781 | 770.4 | 760.4 | 748.4 | 740.3
353.15 K, 20000 kPa | 793.9 | 784.8 | 774.5 | 764.8 | 753.1 | 745.2
353.15 K, 25000 kPa | 797.3 | 788.5 | 778.4 | 768.9 | 757.4 | 749.8
353.15 K, 30000 kPa | 800.7 | 792.1 | 782.3 | 772.9 | 761.7 | 754.1
353.15 K, 35000 kPa | 804 | 795.5 | 785.8 | 776.7 | 765.6 | 758.3
353.15 K, 40000 kPa | 807.1 | 798.6 | 789.2 | 780.1 | 769.4 | 762.1
353.15 K, 45000 kPa | 810 | 801.8 | 792.5 | 783.7 | 773 | 765.9
353.15 K, 50000 kPa | 813 | 804.9 | 795.8 | 787.1 | 776.7 | 769.6
353.15 K, 55000 kPa | 815.8 | 807.8 | 798.8 | 790.2 | 779.9 | 773.1
353.15 K, 60000 kPa | 818.6 | 810.7 | 801.8 | 793.3 | 783.2 | 776.5
353.15 K, 65000 kPa | 821.2 | 813.5 | 804.7 | 796.4 | 786.3 | 779.7
353.15 K, 70000 kPa | 823.8 | 816.2 | 807.5 | 799.3 | 789.5 | 782.9
353.15 K, 80000 kPa | 828.7 | 821.2 | 812.8 | 804.8 | 795.2 | 788.8
353.15 K, 90000 kPa | 833.5 | 826.2 | 817.9 | 810.1 | 800.7 | 794.4
353.15 K, 100000 kPa | 837.9 | 830.8 | 822.7 | 815.1 | 805.9 | 799.8
353.15 K, 110000 kPa | 842.3 | 835.3 | 827.4 | 819.9 | 810.9 | 804.9
353.15 K, 120000 kPa | 846.4 | 839.5 | 831.8 | 824.4 | 815.6 | 809.7
353.15 K, 130000 kPa | 850.3 | 843.7 | 836 | 828.7 | 820.1 | 814.2
353.15 K, 140000 kPa | 854.3 | 847.6 | 840.1 | 833 | 824.5 | 818.7
373.15 K, 100 kPa | 761.9 | – | – | – | – | –
373.15 K, 1000 kPa | 762.8 | 752.3 | 740.4 | 729.1 | 715.4 | 706.3
373.15 K, 5000 kPa | 766.6 | 756.5 | 744.8 | 733.9 | 720.7 | 711.9
373.15 K, 10000 kPa | 771.1 | 761.3 | 750 | 739.6 | 726.7 | 718.3
373.15 K, 15000 kPa | 775.5 | 765.9 | 754.9 | 744.8 | 732.4 | 724.2
373.15 K, 20000 kPa | 779.5 | 770.2 | 759.5 | 749.6 | 737.6 | 729.7
373.15 K, 25000 kPa | 783.4 | 774.3 | 763.9 | 754.3 | 742.5 | 734.8
373.15 K, 30000 kPa | 787.1 | 778.1 | 768 | 758.6 | 747.2 | 739.6
373.15 K, 35000 kPa | 790.6 | 781.9 | 772 | 762.7 | 751.6 | 744.1
373.15 K, 40000 kPa | 794 | 785.4 | 775.7 | 766.7 | 755.7 | 748.5
373.15 K, 45000 kPa | 797.2 | 788.9 | 779.3 | 770.5 | 759.7 | 752.7
373.15 K, 50000 kPa | 800.3 | 792.1 | 782.7 | 774 | 763.4 | 756.5
373.15 K, 55000 kPa | 803.4 | 795.2 | 786 | 777.5 | 767.1 | 760.3
373.15 K, 60000 kPa | 806.3 | 798.3 | 789.2 | 780.8 | 770.6 | 763.9
373.15 K, 65000 kPa | 809.2 | 801.3 | 792.3 | 784 | 774 | 767.4
373.15 K, 70000 kPa | 811.9 | 804.1 | 795.3 | 787.1 | 777.2 | 770.6
373.15 K, 80000 kPa | 817.2 | 809.7 | 801.1 | 793.1 | 783.5 | 777.1
373.15 K, 90000 kPa | 822.3 | 814.9 | 806.5 | 798.7 | 789.3 | 783.1
373.15 K, 100000 kPa | 827 | 819.8 | 811.5 | 803.9 | 794.8 | 788.7
373.15 K, 110000 kPa | 831.6 | 824.5 | 816.5 | 809.1 | 800 | 794
373.15 K, 120000 kPa | 835.9 | 829 | 821.1 | 813.8 | 805 | 799.1
373.15 K, 130000 kPa | 840.2 | 833.4 | 825.6 | 818.4 | 809.8 | 803.9
373.15 K, 140000 kPa | 844.1 | 837.4 | 829.8 | 822.8 | 814.3 | 808.6
393.15 K, 100 kPa | 744.9 | – | – | – | – | –
393.15 K, 1000 kPa | 745.8 | 734.9 | 722.5 | 710.7 | 696.6 | 687.4
393.15 K, 5000 kPa | 750.2 | 739.7 | 727.6 | 716.3 | 702.7 | 693.9
393.15 K, 10000 kPa | 755.3 | 745.1 | 733.5 | 722.7 | 709.7 | 701.2
393.15 K, 15000 kPa | 760.1 | 750.3 | 739 | 728.6 | 716 | 708
393.15 K, 20000 kPa | 764.6 | 755.1 | 744.2 | 734 | 721.9 | 714
393.15 K, 25000 kPa | 768.8 | 759.6 | 749 | 739.1 | 727.4 | 719.7
393.15 K, 30000 kPa | 772.9 | 763.8 | 753.5 | 743.9 | 732.4 | 725
393.15 K, 35000 kPa | 776.8 | 767.9 | 757.8 | 748.5 | 737.3 | 730
393.15 K, 40000 kPa | 780.4 | 771.8 | 761.9 | 752.7 | 741.8 | 734.8
393.15 K, 45000 kPa | 783.9 | 775.4 | 765.8 | 756.8 | 746 | 739.1
393.15 K, 50000 kPa | 787.3 | 779 | 769.4 | 760.7 | 750.1 | 743.4
393.15 K, 55000 kPa | 790.7 | 782.5 | 773.2 | 764.5 | 754.2 | 747.5
393.15 K, 60000 kPa | 793.8 | 785.7 | 776.5 | 768 | 757.9 | 751.3
393.15 K, 65000 kPa | 796.8 | 788.9 | 779.8 | 771.4 | 761.5 | 755
393.15 K, 70000 kPa | 799.8 | 792 | 783.1 | 774.9 | 765 | 758.7
393.15 K, 80000 kPa | 805.5 | 797.8 | 789.2 | 781.2 | 771.6 | 765.4
393.15 K, 90000 kPa | 810.9 | 803.5 | 795 | 787.2 | 777.9 | 771.8
393.15 K, 100000 kPa | 815.9 | 808.6 | 800.4 | 792.8 | 783.6 | 777.7
393.15 K, 110000 kPa | 820.8 | 813.7 | 805.6 | 798.2 | 789.3 | 783.5
393.15 K, 120000 kPa | 825.3 | 818.3 | 810.4 | 803.1 | 794.3 | 788.7
393.15 K, 130000 kPa | 829.8 | 822.9 | 815.1 | 808 | 799.4 | 793.8
393.15 K, 140000 kPa | 834 | 827.3 | 819.7 | 812.7 | 804.2 | 798.7
